Data on two molecules can be found in patent US10766912B2 (priority 2017, dated 2020).

Series [1] relates to HCV GT1b/6a NS5A chimeric replicon. As to the kind of experiment: Assay Example 1: activity against HCV GT1b/6a NS5A chimeric replicon. Type of series: cell-based. The settings on record: Hepatitis C virus, Huh-7, 72 h, read-out: EC50 value GT1b/6a NS5A chimeric replicon. Here is the method: (§1) Cells: Huh 7 cell line and HCV GT1b/3a and GT1b/6a NS5A chimeric replicons and GT1b and GT1a wild-type replicon RNA.
(§2) Treatment of Compound: According to the assay final concentrations of the compounds in Table 2, DMSO stock solutions of the compounds were diluted and then added to a 96-well assay plate. The final concentration of DMSO was 0.5%.
(§3) The preparation of cells: After replicon plasmid DNA was linearized with a corresponding restriction enzyme, the DNA was transcribed into RNA by using T7RNA polymerase. Replicon RNA prepared by transcription in vitro was transfected into Huh-7 cells by electroporation. Transfected cells were seeded at a density of 10,000 cells per well into the 96-well assay plate containing the diluted compounds, and then the plate was placed in a 37° C. incubator with 5% CO2 and cultured for 3 days.
(§4) Drug activity assay: Luminescence signal value (RLU) was detected with Envision within 15 minutes using the luciferase assay reagent Britelite plus, and the original data (RLU) was used for the calculation of the activity of the compounds.
(§5) The activity of the compounds was calculated by using the equation below: Inhibition %=(ZPE−CPD)/(ZPE−HPE)×100%*
(§6) The cell viability percentages (Viability %) and the inhibition percentages (Inhibition %) were imported into GraphPad Prism software, respectively, and curves were fitted by using nonlinear regression method to obtain the corresponding curves of the compounds, and the cytotoxicity (CC50) thereof and inhibitory activity (EC50) values against the HCV replicon thereof.

Series [2] is described as follows: in vitro. Type of series: cell-based. The settings on record: human; Huh 7 cells with GT1b wild-type replicon, 3 days, CellTiter-Fluor. Here is the method:
as §1, §2, §3
Cell viability assay: A cell growth fluorescent titration detection reagent CellTiter-Fluor was added to the 96-well plate of the GT1b wild-type replicon. After the cells were cultured for 1 hour in a 37° C. incubator with 5% CO2, the fluorescence signal value (RFU) was detected by Envision, and the original data (RFU) was used for the calculation of the cytotoxicity of the compounds.
The cytotoxicity of the compounds was calculated by using the equation below: Cell Viability %=(CPD−HPE)/(ZPE−HPE)×100%*
as §6

Series [3] in a line: Assay Example 4: distribution in rat plasma and liver tissue. Type of series: in vivo. The settings on record: 10 mg/kg intragastric; for Kp at 0.5 h / Kp at 3 h / Kp at 8 h: male, oral, liver/plasma, read-out: Ratio (L/P). Here is the method: Eighteen male rats were randomly divided into two groups of 9 rats each, fasted (free access to water) overnight, and then intragastrically administered with 10 mg/kg of Compound 1a and Compound 6b, respectively. The subject animals were sacrificed by bloodletting at 0.5 h, 3 h and 8 h after administration. About 1 mL of blood was taken, and anticoagulated with EDTA-K2. The blood samples were immediately placed in ice, and then transferred within 30 min to centrifuge and separate plasma at 4° C. and 4,000 rpm for 10 min. Meanwhile, the whole liver was taken out at the various time points, rinsed with ice-cold physiological saline, blotted dry, weighed, and prepared into a homogenate with physiological saline (W/V=1:5). All plasma and liver homogenates were collected and then immediately stored at −20° C. for testing.
The rats can be fed at 4 h after administration.
After being completely melted, all the samples were vortexed to mix evenly. 50 μL of the samples were pipetted into a 1.5 mL centrifuge tube respectively and then 300 μL of IS-D (20 ng/ml diazepam acetonitrile) solution was added to each sample (200 μL of acetonitrile was added to the blank sample). The samples were vortexed for 10 min and then centrifuged at 12,000 rpm and 4° C. for 10 min. After 80 μL of pure water was added to a 96-well plate, 80 μL of the supernatants were pipetted respectively from the centrifuge tubes to the 96-well plate, vortexed for 3 min, and then kept at 4° C. until LC-MS/MS injection analysis.

Series [4] concerns HCV GT1b/3a NS5A chimeric replicon. As to the kind of experiment: Assay Example 1: activity against HCV GT1b/3a NS5A chimeric replicon. In kind it is cell-based. The settings on record: Hepatitis C virus, Huh-7, 72 h, read-out: EC50 value GT1b/3a NS5A chimeric replicon. The method, then:
as §1, §2, §3, §4, §5, §6

The test system of series [5] is HCV GT1a wild-type replicon. As to the kind of experiment: Assay Example 1: activity against HCV GT1a wild-type replicon. As to conditions: Hepatitis C virus, 72 h, Huh 7 cells, 3 days, luciferase. Type of series: cell-based. Here is the method: as §1, §2, §3, §4, §5, §6
Series [6] concerns GT1a-NS5A-L31V mutant replicon. As to the kind of experiment: Assay Example 6: drug resistance, activity against GT1a-NS5A-L31V mutant replicon. In kind it is cell-based, hepatitis C virus. As to conditions: for GT1a-NS5A-L31V Fold change: EC50 mutant versus GT1a-wt; for EC50: Hepatitis C virus, GT1A, Huh-7, 72 h, read-out: GT1a-NS5A-L31V EC50 value. The method, then:
Cells: Huh-7 cells are liver cancer cell strains (from AppTec, USA), HCVGT1a wild-type replicon and GT1a-NS5A-Y93H and GT1a-NS5A-L31V mutant replicons
Treatment of Compound: According to the assay final concentrations of the compounds in Table 11, DMSO stock solutions of the compounds were diluted and then added to a 96-well assay plate. The final concentration of DMSO was 0.5%.
The preparation of cells: After replicon plasmid DNA was linearized with a corresponding restriction enzyme, the DNA was transcribed into RNA by using T7 RNA polymerase. Replicon RNA prepared by transcription in vitro was transfected into Huh-7 cells by electroporation. Transfected cells were seeded at a density of 10,000 cells per well into the 96-well assay plate containing the diluted compounds, and then placed in a 37° C. incubator with 5% CO2 and cultured for 3 days.
Compound activity assay: Luminescence signal value (RLU) was detected with Envision within 5 minutes by using the luciferase assay reagent Britelite plus, and the original data (RLU) was used for the calculation of the activity of the compounds.
The activity of the compounds was calculated by using the equation below: Inhibition %=(CPD−ZPE)/(HPE−ZPE)×100%*
The compound activity percentages (Inhibition %) were imported into GraphPad Prism software, and curves were fitted by using nonlinear regression method to obtain the corresponding curves of the compounds and the inhibitory activity (EC50) values against the HCV replicon thereof.

Where only a bound is given, the exact number is not on record here.

Turning to `COC(=O)N[C@H](C(=O)N1CCC[C@H]1C(=O)Nc1ccc([C@@H]2CC[C@@H](c3ccc(NC(=O)[C@@H]4CCCN4C(=O)[C@@H](NC(=O)OC)[C@@H](C)OC)cc3)N2c2cc(F)c(N3CC[Si](C)(C)CC3)c(F)c2)cc1)[C@@H](C)OC` [Compound 1a, Methyl ((2S,2′S,3R,3′R)-((2S,2′S)-(((((2S,5S)-1-(4-(4,4-dimethylazasilinan-1-yl)-3,5-difluorophenyl)pyrrolidin-2,5-diyl)bis(4,1-phenylene))bis(azanediyl))bis(carbonyl))bis(pyrrolidin-2,1-diyl))bis(3-methoxy-1-oxobutan-1,2-diyl))dicarbamate], the EC50 in series [1] worked out at 17 pM. The same molecule returned a CC50 in series [2] of more than 100 pM. In series [3] (0.5 h), the Liver concentration amounted to 384 ± 121, the Plasma concentration is given as 54.7 ± 7.82 and the Kp at 0.5 h came to 7.01. Also, in series [3] (3 h), the Liver concentration turned out to be 1711 ± 485, the Plasma concentration was 70.1 ± 20.6 and the Kp at 3 h came to 24.4. For the same molecule, in series [3] (8 h), the Liver concentration is 1087 ± 822, the Plasma concentration is 59 ± 33.7 and the Kp at 8 h was 18.4. Also, the EC50 in series [4] was 3 pM. For the same molecule, in series [5], the EC50 worked out at 7.7 pM. Besides, in series [6], the “GT1a-NS5A-L31V Fold change” value came out at 40.9 and the EC50 worked out at 27 pM.
`COC(=O)N[C@H](C(=O)N1CCC[C@H]1C(=O)Nc1ccc([C@H]2CC[C@H](c3ccc4nc([C@@H]5CCCN5C(=O)[C@@H](NC(=O)OC)[C@@H](C)OC)[nH]c4c3)N2c2cc(F)c(N3CC[Si](C)(C)CC3)c(F)c2)cc1)[C@@H](C)OC` [Compound 6b]: the EC50 in series [1] amounted to 5.4 pM; in series [4], 2.4 pM; in series [5], 6.2 pM; in series [6], 22 pM. In series [2], this molecule registered a CC50 of more than 100 pM. In addition, the Liver concentration in series [3] (0.5 h) is recorded as 212 ± 57.2; in series [3] (3 h) it was 495 ± 171; in series [3] (8 h), 77.5 ± 20.6. In addition, the results for the Plasma concentration in series [3] (0.5 h), in series [3] (3 h) and in series [3] (8 h) were 19.8 ± 8.31, 34.8 ± 14.7 and 5.82 ± 0.99, respectively. In addition, in series [3] (0.5 h), the Kp at 0.5 h stood at 10.7. Further, in series [3] (3 h), the Kp at 3 h is 14.2. The Kp at 8 h in series [3] (8 h) is 13.3. Further, the “GT1a-NS5A-L31V Fold change” value in series [6] worked out at 10.0.
